From ChEMBL document CHEMBL5212743, “Selectivity Literature for EUbOPEN Chemogenomics Library wave 3” (2023)
Each block holds one compound with its values, some of them ahead of it.

What was measured:
Cannabinoid receptor 1 [1] = molecular target: T1, Cannabinoid receptor 1 (Homo sapiens, UniProt P21554); test: Selectivity interaction (CNR1 functional assay (GTPyS binding)) EUB0000291b CNR1
Cannabinoid receptor 1 [2] = molecular target: T1, Cannabinoid receptor 1; test: Selectivity interaction (Eurofins-Panlabs radioligand binding assay) EUB0000291b CNR1; settings: at 10 µM
[3] = molecular target: Proteinase-activated receptor 4 (Homo sapiens, UniProt Q96RI0); test: Selectivity interaction (Functional cellular assay (using HEK cells expressing F2RL3)) EUB0000291b F2RL3
[4] = molecular target: Serine/threonine-protein kinase DCLK2 (Homo sapiens) (UniProt Q8N568); test: Selectivity interaction (KinomeScan (DiscoverX)) EUB0000291b DCLK2; settings: at 1 µM
[5] = molecular target: Cyclin-dependent kinase 4 (Homo sapiens) (UniProt P11802); test: Selectivity interaction (KinomeScan (DiscoverX)) EUB0000291b CDK4; settings: at 1 µM
Sequence of Cyclin-dependent kinase 4 (Homo sapiens) (P11802 whole entry): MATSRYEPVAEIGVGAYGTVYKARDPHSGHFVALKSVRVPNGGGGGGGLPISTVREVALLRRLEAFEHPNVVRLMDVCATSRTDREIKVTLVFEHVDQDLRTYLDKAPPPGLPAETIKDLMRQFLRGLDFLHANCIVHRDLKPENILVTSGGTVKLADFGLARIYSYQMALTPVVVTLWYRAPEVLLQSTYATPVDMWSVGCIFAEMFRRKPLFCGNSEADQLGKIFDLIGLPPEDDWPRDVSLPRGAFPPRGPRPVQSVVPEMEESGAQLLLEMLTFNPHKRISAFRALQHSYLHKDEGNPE

[6] = molecular target: Cyclin-dependent kinase 18 (Homo sapiens) (UniProt Q07002); test: Selectivity interaction (KinomeScan (DiscoverX)) EUB0000291b CDK18; settings: at 1 µM
Sequence of Cyclin-dependent kinase 18 (Homo sapiens) (Q07002 whole entry): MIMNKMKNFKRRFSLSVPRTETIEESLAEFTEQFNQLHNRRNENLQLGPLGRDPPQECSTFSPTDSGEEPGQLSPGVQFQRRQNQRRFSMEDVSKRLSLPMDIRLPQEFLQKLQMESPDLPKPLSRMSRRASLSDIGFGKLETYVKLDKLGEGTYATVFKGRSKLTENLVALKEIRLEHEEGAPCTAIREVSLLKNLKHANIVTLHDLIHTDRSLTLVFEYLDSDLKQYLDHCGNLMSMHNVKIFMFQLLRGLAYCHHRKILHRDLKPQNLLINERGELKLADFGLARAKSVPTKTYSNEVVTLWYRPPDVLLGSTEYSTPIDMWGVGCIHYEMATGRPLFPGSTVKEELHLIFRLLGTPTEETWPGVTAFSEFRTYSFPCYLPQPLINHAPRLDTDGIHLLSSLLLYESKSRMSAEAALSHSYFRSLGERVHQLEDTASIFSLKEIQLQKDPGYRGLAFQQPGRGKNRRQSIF

[7] = molecular target: Non-receptor tyrosine-protein kinase TYK2 (Homo sapiens, UniProt P29597); test: Selectivity interaction (KinomeScan (DiscoverX)) EUB0000291b TYK2; settings: at 1 µM
[8] = molecular target: Cyclin-dependent kinase 11A (Homo sapiens) (UniProt Q9UQ88); test: Selectivity interaction (KinomeScan (DiscoverX)) EUB0000291b CDK11A; settings: at 1 µM
Sequence of Cyclin-dependent kinase 11A (Homo sapiens) (Q9UQ88 whole entry): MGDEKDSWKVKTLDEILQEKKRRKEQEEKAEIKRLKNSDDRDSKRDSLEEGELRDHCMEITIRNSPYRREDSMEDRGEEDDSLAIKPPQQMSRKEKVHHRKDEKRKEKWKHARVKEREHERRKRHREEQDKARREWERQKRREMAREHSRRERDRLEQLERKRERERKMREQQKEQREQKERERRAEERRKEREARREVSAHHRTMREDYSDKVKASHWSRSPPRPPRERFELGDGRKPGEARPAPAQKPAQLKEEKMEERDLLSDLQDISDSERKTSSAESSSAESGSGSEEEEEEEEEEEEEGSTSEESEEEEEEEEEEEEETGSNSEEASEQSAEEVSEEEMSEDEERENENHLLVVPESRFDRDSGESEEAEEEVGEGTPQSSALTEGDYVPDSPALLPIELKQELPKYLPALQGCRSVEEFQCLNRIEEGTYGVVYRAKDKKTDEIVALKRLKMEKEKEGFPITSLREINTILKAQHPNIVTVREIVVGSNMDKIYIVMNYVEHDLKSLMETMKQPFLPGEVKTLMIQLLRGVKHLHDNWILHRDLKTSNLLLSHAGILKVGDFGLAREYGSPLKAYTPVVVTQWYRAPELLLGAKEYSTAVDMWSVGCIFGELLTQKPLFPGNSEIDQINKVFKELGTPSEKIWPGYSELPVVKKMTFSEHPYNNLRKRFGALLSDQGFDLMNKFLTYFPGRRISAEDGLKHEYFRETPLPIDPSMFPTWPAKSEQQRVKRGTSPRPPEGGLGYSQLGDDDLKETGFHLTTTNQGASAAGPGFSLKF

[9] = molecular target: Mitogen-activated protein kinase kinase kinase 12 (Homo sapiens) (UniProt Q12852); test: Selectivity interaction (KinomeScan (DiscoverX)) EUB0000291b MAP3K12; settings: at 1 µM
Sequence of Mitogen-activated protein kinase kinase kinase 12 (Homo sapiens) (Q12852 whole entry): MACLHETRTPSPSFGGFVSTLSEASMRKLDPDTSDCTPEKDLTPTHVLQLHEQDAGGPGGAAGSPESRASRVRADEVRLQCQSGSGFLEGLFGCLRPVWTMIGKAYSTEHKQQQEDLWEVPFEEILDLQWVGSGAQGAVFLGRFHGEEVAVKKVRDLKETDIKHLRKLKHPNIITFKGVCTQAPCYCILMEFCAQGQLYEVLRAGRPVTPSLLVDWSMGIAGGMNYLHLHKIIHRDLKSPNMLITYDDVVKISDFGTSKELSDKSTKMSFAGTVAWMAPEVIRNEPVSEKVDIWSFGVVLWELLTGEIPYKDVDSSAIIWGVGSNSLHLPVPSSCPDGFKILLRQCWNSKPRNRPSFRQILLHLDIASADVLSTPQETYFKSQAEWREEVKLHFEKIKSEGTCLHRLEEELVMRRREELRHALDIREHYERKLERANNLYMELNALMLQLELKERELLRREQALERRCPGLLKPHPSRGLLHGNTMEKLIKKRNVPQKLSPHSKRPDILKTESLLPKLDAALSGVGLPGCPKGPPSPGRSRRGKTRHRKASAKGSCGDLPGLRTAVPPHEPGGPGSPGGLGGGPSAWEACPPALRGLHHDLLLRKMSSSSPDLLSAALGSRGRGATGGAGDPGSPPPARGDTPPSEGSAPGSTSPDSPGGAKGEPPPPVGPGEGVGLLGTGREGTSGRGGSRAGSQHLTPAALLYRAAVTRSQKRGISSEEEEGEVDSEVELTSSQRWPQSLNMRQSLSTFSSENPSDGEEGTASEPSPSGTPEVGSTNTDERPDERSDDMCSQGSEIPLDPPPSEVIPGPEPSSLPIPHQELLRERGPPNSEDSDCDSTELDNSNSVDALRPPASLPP

[10] = molecular target: Muscarinic acetylcholine receptor M1 (Homo sapiens, UniProt P11229); test: Selectivity interaction (GPCR panel (PDSP screen)) EUB0000743a CHRM1
[11] = molecular target: SRSF protein kinase 2 (Homo sapiens) (UniProt P78362); test: Selectivity interaction (KinomeScan (DiscoverX)) EUB0000743a SRPK2; settings: Cellular assay (active RAS (KRAS, HRAS,NRAS) in Calu-1 cells ([…])): IC50 = 4120 nM, https://www.sgc-ffm.uni-frankfurt.d, at 1 µM
[12] = molecular target: Megakaryocyte-associated tyrosine-protein kinase (Homo sapiens) (UniProt P42679); test: Selectivity interaction (KinomeScan (DiscoverX)) EUB0000743a MATK; settings: Cellular assay (active RAS (KRAS, HRAS,NRAS) in Calu-1 cells ([…])): IC50 = 4120 nM, https://www.sgc-ffm.uni-frankfurt.d, at 1 µM
[13] = molecular target: T2, Gamma-aminobutyric acid receptor subunit alpha-1 (Homo sapiens, UniProt P14867); test: Selectivity interaction (GPCR panel (PDSP screen)) EUB0000587a GABRA1
T2 sequence (P14867 whole entry): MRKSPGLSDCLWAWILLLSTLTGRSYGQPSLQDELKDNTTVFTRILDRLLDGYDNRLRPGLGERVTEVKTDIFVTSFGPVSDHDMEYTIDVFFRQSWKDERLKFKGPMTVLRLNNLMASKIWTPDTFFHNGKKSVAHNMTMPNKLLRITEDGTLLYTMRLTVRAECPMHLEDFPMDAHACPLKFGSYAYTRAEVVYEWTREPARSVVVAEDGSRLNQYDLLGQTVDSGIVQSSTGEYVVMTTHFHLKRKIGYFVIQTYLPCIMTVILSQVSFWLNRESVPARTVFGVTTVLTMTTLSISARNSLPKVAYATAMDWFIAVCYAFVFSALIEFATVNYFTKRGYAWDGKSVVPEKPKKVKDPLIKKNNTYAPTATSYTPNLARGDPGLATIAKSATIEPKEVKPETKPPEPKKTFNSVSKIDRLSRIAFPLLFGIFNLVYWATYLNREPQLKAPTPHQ

D(2) dopamine receptor = D(2) dopamine receptor (Homo sapiens, UniProt P14416); test: Selectivity interaction (GPCR panel (PDSP screen)) EUB0000725a DRD2; settings: at 10 µM
Sequence of D(2) dopamine receptor (P14416 whole entry): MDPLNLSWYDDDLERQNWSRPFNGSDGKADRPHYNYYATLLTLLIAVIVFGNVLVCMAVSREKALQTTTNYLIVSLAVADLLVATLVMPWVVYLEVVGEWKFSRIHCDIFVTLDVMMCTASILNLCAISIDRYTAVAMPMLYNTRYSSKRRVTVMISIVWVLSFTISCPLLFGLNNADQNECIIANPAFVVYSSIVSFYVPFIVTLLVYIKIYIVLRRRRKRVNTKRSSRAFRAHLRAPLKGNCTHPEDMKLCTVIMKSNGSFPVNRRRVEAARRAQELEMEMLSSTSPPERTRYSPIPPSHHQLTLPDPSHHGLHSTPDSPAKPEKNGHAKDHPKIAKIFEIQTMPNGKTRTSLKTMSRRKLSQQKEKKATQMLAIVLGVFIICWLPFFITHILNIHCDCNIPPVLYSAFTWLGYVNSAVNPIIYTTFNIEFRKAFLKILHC

[14] = molecular target: Macrophage metalloelastase (Homo sapiens, UniProt P39900); test: Selectivity interaction (MMPs panel (Panlabs panel, Bayer)) EUB0000725a MMP12
Collagenase 3 = Collagenase 3 (Homo sapiens, UniProt P45452); test: Selectivity interaction (MMPs panel (Panlabs panel, Bayer)) EUB0000725a MMP13
Interstitial collagenase = Interstitial collagenase (Homo sapiens, UniProt P03956); test: Selectivity interaction (MMPs panel (Panlabs panel, Bayer)) EUB0000725a MMP1
Sequence of Interstitial collagenase (P03956 whole entry): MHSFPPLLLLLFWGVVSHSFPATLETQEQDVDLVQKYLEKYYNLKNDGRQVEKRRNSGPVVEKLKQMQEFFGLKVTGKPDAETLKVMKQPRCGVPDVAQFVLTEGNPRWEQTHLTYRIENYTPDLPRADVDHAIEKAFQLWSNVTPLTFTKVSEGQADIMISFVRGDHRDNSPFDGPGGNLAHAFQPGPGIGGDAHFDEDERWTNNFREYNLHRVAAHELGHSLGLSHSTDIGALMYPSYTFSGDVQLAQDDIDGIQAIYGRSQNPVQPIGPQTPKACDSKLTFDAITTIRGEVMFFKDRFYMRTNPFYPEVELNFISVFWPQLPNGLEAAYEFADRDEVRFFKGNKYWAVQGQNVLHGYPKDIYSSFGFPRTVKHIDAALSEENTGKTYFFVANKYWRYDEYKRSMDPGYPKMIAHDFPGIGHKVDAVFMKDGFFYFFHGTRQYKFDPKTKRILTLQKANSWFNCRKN

[15] = molecular target: Matrix metalloproteinase-14 (Homo sapiens, UniProt P50281); test: Selectivity interaction (MMPs panel (Panlabs panel, Bayer)) EUB0000725a MMP14
[16] = molecular target: 72 kDa type IV collagenase (Homo sapiens, UniProt P08253); test: Selectivity interaction (MMPs panel (Panlabs panel, Bayer)) EUB0000725a MMP2
Stromelysin-1 = Stromelysin-1 (Homo sapiens, UniProt P08254); test: Selectivity interaction (MMPs panel (Panlabs panel, Bayer)) EUB0000725a MMP3
Sequence of Stromelysin-1 (P08254 whole entry): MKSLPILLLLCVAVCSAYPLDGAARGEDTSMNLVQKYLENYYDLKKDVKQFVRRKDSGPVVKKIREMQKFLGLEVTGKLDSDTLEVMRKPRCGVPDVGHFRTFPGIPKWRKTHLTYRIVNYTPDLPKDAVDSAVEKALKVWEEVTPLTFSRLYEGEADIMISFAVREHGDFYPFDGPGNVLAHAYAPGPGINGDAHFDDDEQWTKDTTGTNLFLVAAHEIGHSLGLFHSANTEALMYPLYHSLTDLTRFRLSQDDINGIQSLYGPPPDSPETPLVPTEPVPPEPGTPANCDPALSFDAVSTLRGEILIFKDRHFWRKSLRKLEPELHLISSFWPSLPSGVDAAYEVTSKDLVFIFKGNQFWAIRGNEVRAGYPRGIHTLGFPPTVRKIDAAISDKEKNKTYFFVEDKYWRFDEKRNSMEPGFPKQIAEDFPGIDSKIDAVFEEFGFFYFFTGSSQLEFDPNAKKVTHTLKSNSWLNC

Matrilysin = molecular target: T3, Matrilysin (Homo sapiens, UniProt P09237); test: Selectivity interaction (MMPs panel (Panlabs panel, Bayer)) EUB0000725a MMP7
T3 sequence (P09237 whole entry): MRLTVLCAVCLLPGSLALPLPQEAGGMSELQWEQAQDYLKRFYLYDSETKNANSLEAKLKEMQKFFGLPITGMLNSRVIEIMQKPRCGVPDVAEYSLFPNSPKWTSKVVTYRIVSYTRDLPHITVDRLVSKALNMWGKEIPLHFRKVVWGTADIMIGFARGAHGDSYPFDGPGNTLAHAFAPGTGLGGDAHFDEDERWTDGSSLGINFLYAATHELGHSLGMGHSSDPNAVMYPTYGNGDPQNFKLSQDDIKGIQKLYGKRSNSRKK

Neutrophil collagenase = Neutrophil collagenase (Homo sapiens, UniProt P22894); test: Selectivity interaction (MMPs panel (Panlabs panel, Bayer)) EUB0000725a MMP8
[17] = molecular target: Matrix metalloproteinase-9 (Homo sapiens, UniProt P14780); test: Selectivity interaction (MMPs panel (Panlabs panel, Bayer)) EUB0000725a MMP9
Sequence of Matrix metalloproteinase-9 (P14780 whole entry): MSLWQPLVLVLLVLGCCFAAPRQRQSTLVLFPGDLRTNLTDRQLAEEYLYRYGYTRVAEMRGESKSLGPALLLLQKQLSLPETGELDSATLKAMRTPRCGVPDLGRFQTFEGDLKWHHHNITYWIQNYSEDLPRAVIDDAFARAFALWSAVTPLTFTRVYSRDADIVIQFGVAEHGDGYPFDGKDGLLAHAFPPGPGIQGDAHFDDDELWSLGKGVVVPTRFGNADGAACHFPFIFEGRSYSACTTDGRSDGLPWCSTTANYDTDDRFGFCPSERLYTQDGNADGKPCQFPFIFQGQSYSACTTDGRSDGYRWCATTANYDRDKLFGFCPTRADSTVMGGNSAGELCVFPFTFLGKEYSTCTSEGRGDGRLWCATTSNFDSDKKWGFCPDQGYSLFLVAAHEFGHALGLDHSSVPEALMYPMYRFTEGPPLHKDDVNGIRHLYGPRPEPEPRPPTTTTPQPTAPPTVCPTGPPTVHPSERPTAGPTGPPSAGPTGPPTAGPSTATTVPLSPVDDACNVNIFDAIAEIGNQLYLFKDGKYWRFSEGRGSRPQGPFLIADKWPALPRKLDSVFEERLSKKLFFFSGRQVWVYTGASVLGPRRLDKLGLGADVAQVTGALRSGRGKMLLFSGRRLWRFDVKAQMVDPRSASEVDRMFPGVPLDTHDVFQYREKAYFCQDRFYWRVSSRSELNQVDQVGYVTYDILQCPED

[18] = molecular target: Uncharacterized serine/threonine-protein kinase SBK3 (Homo sapiens) (UniProt P0C264); test: Selectivity interaction (KinomeScan (DiscoverX)) EUB0000725a SBK3; settings: at 10 µM
[19] = molecular target: Phosphatidylinositol 4,5-bisphosphate 3-kinase catalytic subunit alpha isoform (Homo sapiens, UniProt P42336); test: Selectivity interaction (KinomeScan (DiscoverX)) EUB0000725a PIK3CA; settings: at 10 µM

T1 sequence (P21554 whole entry): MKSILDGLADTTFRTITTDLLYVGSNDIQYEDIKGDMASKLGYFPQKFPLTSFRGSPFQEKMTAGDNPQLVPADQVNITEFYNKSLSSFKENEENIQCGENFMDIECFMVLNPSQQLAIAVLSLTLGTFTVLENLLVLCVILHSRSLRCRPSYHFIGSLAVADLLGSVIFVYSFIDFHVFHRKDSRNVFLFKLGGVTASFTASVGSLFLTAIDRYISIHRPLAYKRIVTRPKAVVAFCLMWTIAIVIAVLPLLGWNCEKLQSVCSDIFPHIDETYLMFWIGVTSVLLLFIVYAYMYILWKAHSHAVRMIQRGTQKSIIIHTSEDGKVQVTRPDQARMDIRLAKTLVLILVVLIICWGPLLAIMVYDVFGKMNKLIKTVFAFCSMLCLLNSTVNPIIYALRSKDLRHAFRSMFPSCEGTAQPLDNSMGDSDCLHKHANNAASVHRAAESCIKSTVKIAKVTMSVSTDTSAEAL

IC50 (Cannabinoid receptor 1 [1]): 10.6 µM
% of inhibition (Cannabinoid receptor 1 [2]): 88%
IC50 [3]: > 10 µM
% of control [4]: 0%
% of control [5]: 18%
% of control [6]: 0%
% of control [7]: 53%
% of control [8]: 0%
% of control [9]: 0%
SMILES: O=C(N1CCS(=O)(=O)CC1)N1C[C@H](c2ccc(OC(F)(F)F)cc2)C[C@H](c2nc(C3CC3)no2)C1 [BAY-386]

Ki [10]: 0.614 µM
% of control [11]: 52%
% of control [12]: 51%
SMILES: CNCc1ccccc1-c1csc([C@H](C)Nc2nc(C)nc3cc(OC)c(OC)cc23)c1 [BAY-294]

Ki [13]: 0.224 µM
SMILES: CCNC(=O)c1cc2c(N3CCOC[C@@H]3C)ccnc2n1C

% of inhibition (D(2) dopamine receptor): 30%
IC50 [14]: > 10 µM
IC50 (Collagenase 3): > 10 µM
IC50 (Interstitial collagenase): > 10 µM
IC50 [15]: > 10 µM
IC50 [16]: > 10 µM
IC50 (Stromelysin-1): > 10 µM
IC50 (Matrilysin): > 10 µM
IC50 (Neutrophil collagenase): > 10 µM
IC50 [17]: > 10 µM
% of control [18]: 43%
% of control [19]: 34%
SMILES: O=C(O)[C@@H]1[C@@H](Cn2nnc3ccccc3c2=O)CC[C@H]1C(=O)c1ccc(OCCC2CCOCC2)cc1 [BAY-694]
